Source: patent US7655678B2, “Pharmaceutical composition for the management of tumors” (Council of Scientfic & Industrial Research, priority 2004, dated 2010)

How the values were obtained:
mouse skin papillomas = conditions: at higher concentrations; cited from earlier work
skin papilloma formation = conditions: topical, cited from earlier work; for rate of survival: SENCAR mice; for skin papilloma formation: from the ninth week of promotion
[1] = system: DMBA induced mouse skin tumor development; assay: chronic animal bioassay: DMBA induced mouse skin tumor development, topical treatment; type: in vivo, female Swiss albino mice; conditions: DMBA 200 ug/kg; Cag 240 mg/kg, NA 240 mg/kg, BA 8 mmoles/kg body wt; topical twice weekly; terminated after 30 weeks; 15 animals each group
Source text: We have used female Swiss albino mice from the inbred colony of Industrial Toxicology Research Center, Lucknow, India. The treatment schedule was followed as described earlier (22). Animals were shaved on the back (2×2 cm) in the interscapular region using surgical clippers. Only the animals in the resting phase of hair growth were selected for the study. For this chronic animal bioassay, we have taken 135 animals and divided them into 9 groups, consisting of 15 animals each. Group 1 served as negative control group where animals received acetone/DMSO only. For the entire study we have used 7,12-Dimethylbenz (a) anthracene (DMBA) as a skin carcinogen. DMBA was used at the dose of 200 μg/kg body wt in 0.1 ml acetone. In group 3, animals were treated with DMBA followed by concomitant application of Calcium D-glucarate (240 mg/kg body wt in 0.1 ml of DMSO). […] In group 5, animals were treated with DMBA followed by concomitant application of Butyric acid (8 mmoles in 0.1 ml of acetone). […] In group 7, animals were treated with DMBA followed by a concomitant application of Calcium D-glucarate, Butyric acid. […] All the treatments were applied topically. […] Animals were inspected regularly for tumor incidence, baldness, acne, poor health, sickness etc. Experiment was terminated after 30 weeks.
Experimental Design (15 Animals Each Group)

skin tumor formation = conditions: topical application; cited from earlier work

| SMILES | Cumulative no. of tumor [1] | No. of tumo bearing animal/Initial No. of animals [1] | Onset of firs tumor [in weeks] [1] [weeks] | further results |
| --- | --- | --- | --- | --- |
| CC1=C(/C=C/C(C)=C/C=C/C(C)=C/C(=O)O)C(C)(C)CCC1 [retinoic acid] |  |  |  | cytotoxicity (mouse skin papillomas): cytotoxic |
| C=CCSCC=C [diallyl sulfide] |  |  |  | rate of survival (skin papilloma formation): significantly increased; skin papilloma formation (skin papilloma formation): significantly inhibited |
| Cc1c2ccccc2c(C)c2c1ccc1ccccc12 [DMBA, 7,12-Dimethylbenz (a) anthracene] | 62 | 15/15 | 15 | 100% tumorigenesis [in weeks] [1]: 28 weeks |
| C=CCSSCC=C [diallyl disulfide] |  |  |  | rate of survival (skin papilloma formation): significantly increased; skin papilloma formation (skin papilloma formation): significantly inhibited |
| O=C([O-])[C@@H](O)[C@@H](O)[C@H](O)[C@@H](O)C(=O)[O-].[Ca+2] [DMBA + CaG, Calcium D-glucarate] | 12 | 10/15 | 18 |  |
| NC(=O)c1cccnc1 [DMBA + NA, Nicotinamide] | 09 | 08/15 | 21 | 100% tumorigenesis [in weeks] [1]: 0 weeks |
| CC(C)=CCOc1ccc2ccc(=O)oc2c1 [7-Isopentenyloxucoumarin] |  |  |  | skin tumor formation (skin tumor formation): suppressed |
